Patent US8501215B2, “Injectable multimodal polymer depot compositions and uses thereof” (priority 2002, dated 2013)
Where a name gives a salt, the structure may show the parent alone.

Assays:
[1] = Saturation concentration of bupivacaine hydrochloride in de-ionized water; assay type: physicochemical
Description: Bupivacaine hydrochloride (Sigma-Aldrich Corporation, St. Louis, Mo.) was dissolved in de-ionized (DI) water at a concentration of 40 mg/ml (saturation). A calculated amount of sodium hydroxide (in the form of 1 N solution) was added to the solution and the pH of the final mixtures was adjusted to ten to precipitate the Bupivacaine base. The precipitated product was filtered, and further washed with DI water for at least three times. The precipitated product was dried at ca. 40° C. in vacuum for 24 hours.

[2] = cited from earlier work

concentration in de-ionized (DI) water (saturation) [1] | Structure (SMILES) | reported solubility in water [2]
40000 µg/mL | CCCCN1CCCCC1C(=O)Nc1c(C)cccc1C (centres unmarked) [Bupivacaine hydrochloride] | –
– | CC(=O)OCC(COC(C)=O)OC(C)=O [triacetin] | 7.17 grams in 100 ml of water
